# Test results published in patent publication US20030143548A1, “Predicting patient responsiveness to serotonergic therapy” (priority 2002, published 2003).
# Legend:
# [1] = system: patients with diarrhea-predominant IBS; assay: Scintigraphic measurement of colonic transit (colonic geometric center at 24 hours) at baseline and after 6 weeks of alosetron; assay type: in vivo, human; settings: for change in colonic geometric center (ΔGC) at 24 hr: 6 weeks vs baseline, negative = slower transit
# Excerpt: Colonic transit can be monitored by known methods (Camilleri M. and Zinsmeister A. R., Gastroenterology 103:36-42 (1992); and Camilleri M. et al., Dig. Dis. Sci. 36:609-615 (1991)). In general, labeled (e.g., ^111In) pellets can be delivered to the colon by means of a methacrylate-coated, delayed-release capsule. Simultaneously, labeled (e.g., ^99mTc) pellets can be ingested in a scrambled egg, toast, and milk meal to facilitate measurement of gastric and small bowel transit. A large field gamma camera (e.g., GE 500, General Electric, Milwaukee, Wis.) with a medium energy parallel hole collimator can be used to obtain images. Typically, images are obtained with subjects in the erect position. A variable region of interest (ROI) program can be used to measure colonic transit, with abdominal images obtained at periodic intervals (e.g.,4, 6, 8, 24, 32, and 48 hours pre- or post-treatment. The amount of label can be determined from the abdominal images in four colonic regions: the ascending, transverse, descending, and combined sigmoid and rectum regions. These counts may be corrected for isotope decay and tissue attenuation, as described in Camilleri et al. (1991) and Camilleri and Zinsmeister (1992), referenced above. The colonic geometric center is the weighted average of counts in the four different colonic regions [ascending (AC), transverse (TC), descending (DC), rectosigmoid (RS) and stool]:
# (% AC×1+% TC×2+% DC×3+% RS×4+% stool×5)/100=geometric center
# A high geometric center implies faster colonic transit, while a reduction of geometric center with treatment implies a retardation of colonic transit.
# Thirty patients with diarrhea-predominant IBS associated were studied. Gastrointestinal and colonic transit were performed during a baseline period and during the last week of a 6-week therapeutic trial with alosetron 1 mg twice daily (b.i.d.). Demographic data of the original 30 participants are as follows: mean age 43.2±3y (females 46±4y, males 40±4y); mean duration of IBS 11.2±2.0y (females 9.2±2.3y and males 13.1±3.2y). Twenty-three of the 30 patients agreed to participate in an evaluation of the influence of the genotype of the promoter region of the 5-HTTP gene. The demographics, gender, and duration of illness in the three groups of patients according to 5-HTTP genotype are shown in the table below.
# An established scintigraphic method was used as referenced above. Briefly, ^111In pellets were delivered to the colon by means of a methacrylate-coated, delayed-release capsule. Simultaneously, ^99mTc pellets were ingested in a scrambled egg, toast, and milk meal (218 kcal) to facilitate measurement of gastric and small bowel transit. Subjects ingested standardized meals for lunch and dinner. A variable region of interest (ROI) program was used to measure colonic transit. Abdominal images at 4, 6, 8, 24, 32, and 48 hours were obtained using a large field of view gamma camera (GE 500, General Electric, Milwaukee, Wis.) with a medium energy parallel hole collimator. All images were obtained with the subjects in the erect position. Radioscintigraphic markers were placed for reference on the anterior ends of the iliac crests. Anterior and posterior images were obtained with the camera positioned over the abdomen. This facilitated subsequent correction of radioisotopic counts for tissue attenuation.
# The counts in four colonic regions were determined: the ascending, transverse, descending, and combined sigmoid and rectum regions. These counts were corrected for isotope decay and tissue attenuation, as referenced above. The primary endpoint of investigation was the colonic geometric center at 24 hours. The colonic geometric center is the weighted average of counts in the four different colonic regions [ascending (AC), transverse (TC), descending (DC), rectosigmoid (RS) and stool]:
# Thus, a high geometric center implies faster colonic transit, while a reduction of geometric center with treatment implies a retardation of colonic transit. […]
# [2] = system: patients with diarrhea-predominant IBS; settings: cited from earlier work
# [3] = by gender; cited from earlier work
# [4] = females, alosetron 1 mg b.i.d., 6 weeks
# [5] = males, alosetron 1 mg b.i.d., 6 weeks
compound,measurement,setting,value
Cc1[nH]cnc1CN1CCc2c(c3ccccc3n2C)C1=O [alosetron],number of females in whom there was no effect on colonic transit,[1]; [4],2
same,number of patients with retardation of colonic transit greater than the clinically significant threshold of 1.14 colonic regions,[1]; [4],Nine
same,change in colonic geometric center (ΔGC) at 24 hr,"[1]; females, alosetron 1 mg b.i.d., p=0.005 vs males",−1.45±0.25 geometric center units
same,"colonic transit response by 5-HTTP promoter genotype (change of 1.14 units in ΔGC24h, FIG. 2)",[1]; genotype groups after treatment with alosetron,a greater response was observed in those with the long polymorphism
same,proportion of high responders (slowing of colonic transit by more than 1.14 regions),[1]; heterozygous 5-HTTP promoter genotype group,2 of 11
same,proportion of high responders (slowing of colonic transit by more than 1.14 regions),"[1]; long variant homozygous 5-HTTP promoter genotype group, Fisher's exact test p=0.024 vs heterozygous",6 of 8
same,colonic transit response by 5-HTTP promoter genotype,"[1]; long/long homozygous vs long/short heterozygous patients, p=0.039",significantly higher response in long variant/long variant homozygous
same,males with retardation of colonic transit at 24 hours equal to or greater than the mean change in females (1.45 geometric center units),[1]; [5],2 of 15
same,number of patients with retardation of colonic transit greater than the clinically significant threshold of 1.14 colonic regions,[1]; [5],3
same,change in colonic geometric center (ΔGC) at 24 hr,"[1]; males, alosetron 1 mg b.i.d.",−0.32±0.27 geometric center units
same,colonic geometric centers at 24 hours following treatment compared to baseline,"[1]; patients with IBS, alosetron 1 mg b.i.d., last week of 6-week trial, lower = slower colonic transit",significantly lower
same,adequate relief of IBS pain and discomfort and normalization of bowel function,"[2]; clinical trials, women with diarrhea-predominant IBS",beneficial effect
same,effect on colonic transit in patients with diarrhea-predominant IBS,[2]; greater effect in females than males,significantly prolonged
same,"systemic exposure, females compared to males",[3],slightly greater systemic exposure
